Consider twelve compounds from ChEMBL document CHEMBL3137667, “[Drug-induced liver injury; fourteenth updated edition of the bibliographic database of liver injuries and related drugs]” (Gastroenterol Clin Biol, 2004).

Data set [1] in a line: Highest frequency of moderate liver toxicity observed during clinical trials, expressed as a percentage. [column '% BIOL' in source]. As to conditions: human.
A short description of data set [2]: Highest frequency of acute liver toxicity observed during clinical trials, expressed as a percentage. [column '% AIGUE' in source]. To be noted: human.
For data set [3] the following is noted: human, serum.
The conditions of data set [4]: human, serum. The source holds these as a separate data set.
For data set [5] the following is noted: human.
The conditions of data set [6]: human. This is another data set of the same source.
The conditions of data set [7]: human. The source holds these as a separate data set.
For data set [8] the following is noted: human, serum, 4383 h.
The conditions of data set [9]: human. This is another data set of the same source.
For data set [10] the following is noted: human. This is another data set of the same source.
The conditions of data set [11]: human. This is another data set of the same source.
The conditions of data set [12]: human. The source holds these as a separate data set.
For data set [13] the following is noted: human. This is another data set of the same source.
For data set [14] the following is noted: human. This is another data set of the same source.
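Throughout, for Hepatotoxicity (association with vascular disease): count of indexed literature references reporting vascular liver injury in humans, e.g. peliosis hepatitis, hepatic veno-occlusive disease or Budd-Chiari syndrome.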
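Throughout, for Hepatotoxicity (benign tumour): value is a count of indexed literature references citing a benign tumour confirmed by histopathology.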
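Throughout, for Hepatotoxicity (choleostasis): human cholestatic liver injury, shown by histopathology or by peak ALT or AST elevation over alkaline phosphatase ratio below 2, value counts indexed literature reports.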
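Throughout, for Hepatotoxicity (chronic liver disease): chronic liver injury confirmed by histopathology or persistently raised serum aminotransferase activity beyond 6 months, value given as the count of indexed literature references.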
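Throughout, for Hepatotoxicity (cirrhosis): value is a count of indexed literature references reporting cirrhosis confirmed by histopathology.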
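Throughout, for Hepatotoxicity (cytolytic): human cytolytic liver injury, shown by histopathology or by a ratio above 5 of peak ALT or AST elevation to alkaline phosphatase elevation, value counts indexed references.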
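Throughout, for Hepatotoxicity (granulomatous hepatitis): value is a count of indexed literature references reporting granulomatous liver disease confirmed by histopathology.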
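Throughout, for Hepatotoxicity (malignant tumour): malignant tumour confirmed by histopathology, value gives the count of indexed literature references reporting it.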
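Throughout, for Hepatotoxicity (severe hepatitis): human clinical data: severe hepatitis, meaning potentially life-threatening liver failure or clinically observed cases, the value counts how many indexed literature references report it.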
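Throughout, for Hepatotoxicity (steatosis): steatosis confirmed by histopathology, value is the count of indexed references.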

For `O=c1[nH]c(=O)n([C@@H]2O[C@H](CO)[C@@H](O)[C@@H]2O)cc1/C=C/Br` [SORIVUDINE], the “Hepatotoxicity (moderate)” value in [1] is recorded as 2%; in data set [3], 1. Besides, the “Hepatotoxicity (acute)” value is recorded as 0% in [2] and 0 in data set [4]. Moreover, the “Hepatotoxicity (cytolytic)” value in data set [5] is 0. The “Hepatotoxicity (choleostasis)” value in [6] was 0. In data set [7], the “Hepatotoxicity (severe hepatitis)” value turned out to be 0. In addition, in data set [8], the “Hepatotoxicity (chronic liver disease)” value stood at 0. Also, the “Hepatotoxicity (cirrhosis)” value in data set [9] was 0. In addition, the “Hepatotoxicity (granulomatous hepatitis)” value in [10] is listed as 0. Further, in data set [11], the “Hepatotoxicity (association with vascular disease)” value stood at 0. In data set [12], the “Hepatotoxicity (steatosis)” value is 0. Moreover, in data set [13], the “Hepatotoxicity (malignant tumour)” value is recorded as 0. In data set [14], the “Hepatotoxicity (benign tumour)” value was 0.

Turning to `CCC(C)(C)NCC(O)COc1ccccc1C(=O)CCc1ccccc1` (stereo not drawn) [DIPRAFENONE], the “Hepatotoxicity (moderate)” value in data set [1] was found to be 3.7%; in data set [3], 3. Moreover, the “Hepatotoxicity (acute)” value is listed as 1.6% in data set [2] and 1 in data set [4]. Besides, the “Hepatotoxicity (cytolytic)” value in data set [5] is reported as 0. Also, in data set [6], the “Hepatotoxicity (choleostasis)” value came to 1. For the same compound, the “Hepatotoxicity (severe hepatitis)” value in [7] came to 0. For the same compound, in data set [8], the “Hepatotoxicity (chronic liver disease)” value is recorded as 0. The “Hepatotoxicity (cirrhosis)” value in data set [9] came out at 0. In [10], the “Hepatotoxicity (granulomatous hepatitis)” value came out at 0. In addition, the “Hepatotoxicity (association with vascular disease)” value in data set [11] came to 0. The “Hepatotoxicity (steatosis)” value in [12] is listed as 0. Further, the “Hepatotoxicity (malignant tumour)” value in data set [13] was 0. In data set [14], the “Hepatotoxicity (benign tumour)” value came to 0.

As to `CCc1[nH]c(=O)[nH]c1C(=O)c1ccncc1` [PIROXIMONE], the “Hepatotoxicity (moderate)” value in data set [1] turned out to be 0%; in data set [3] it was 0. For the same compound, the figures for the “Hepatotoxicity (acute)” value in data set [2] and in data set [4] were 0% and 1, respectively. Besides, the “Hepatotoxicity (cytolytic)” value in [5] is 0. For the same compound, the “Hepatotoxicity (choleostasis)” value in [6] was found to be 0. The “Hepatotoxicity (severe hepatitis)” value in [7] amounted to 0. For the same compound, the “Hepatotoxicity (chronic liver disease)” value in data set [8] turned out to be 0. In [9], the “Hepatotoxicity (cirrhosis)” value was determined as 0. Moreover, the “Hepatotoxicity (granulomatous hepatitis)” value in data set [10] is on record as 0. Moreover, the “Hepatotoxicity (association with vascular disease)” value in data set [11] worked out at 0. Also, the “Hepatotoxicity (steatosis)” value in data set [12] is recorded as 0. For the same compound, the “Hepatotoxicity (malignant tumour)” value in [13] was 0. For the same compound, the “Hepatotoxicity (benign tumour)” value in data set [14] is 0.

As to REVIPARIN SODIUM, the “Hepatotoxicity (moderate)” value in data set [1] is 10.3%; in data set [3] it was 1. For the same compound, the “Hepatotoxicity (acute)” value in data set [2] worked out at 0%; in data set [4], 0. Further, the “Hepatotoxicity (cytolytic)” value in data set [5] stood at 0. Besides, the “Hepatotoxicity (choleostasis)” value in [6] worked out at 0. In addition, the “Hepatotoxicity (severe hepatitis)” value in data set [7] is reported as 0. Also, the “Hepatotoxicity (chronic liver disease)” value in [8] was 0. Moreover, in data set [9], the “Hepatotoxicity (cirrhosis)” value is given as 0. Further, the “Hepatotoxicity (granulomatous hepatitis)” value in data set [10] is recorded as 0. Also, in data set [11], the “Hepatotoxicity (association with vascular disease)” value came out at 0. In addition, the “Hepatotoxicity (steatosis)” value in data set [12] stood at 0. In [13], the “Hepatotoxicity (malignant tumour)” value was 0. Moreover, the “Hepatotoxicity (benign tumour)” value in [14] amounted to 0.

In the case of `COc1cc2nc(N3CCN(C(=O)C4COc5ccccc5O4)CC3)nc(N)c2cc1OC` (stereo not drawn) [DOXAZOSIN], the “Hepatotoxicity (moderate)” value was found to be 2.9% in [1] and 2 in [3]. Moreover, the “Hepatotoxicity (acute)” value was 0% in [2] and 0 in data set [4]. For the same compound, the “Hepatotoxicity (cytolytic)” value in data set [5] was found to be 0. The “Hepatotoxicity (choleostasis)” value in data set [6] was determined as 0. Besides, the “Hepatotoxicity (severe hepatitis)” value in data set [7] is on record as 0. In addition, the “Hepatotoxicity (chronic liver disease)” value in [8] is given as 0. Besides, the “Hepatotoxicity (cirrhosis)” value in [9] was determined as 0. For the same compound, the “Hepatotoxicity (granulomatous hepatitis)” value in data set [10] amounted to 0. The “Hepatotoxicity (association with vascular disease)” value in data set [11] was determined as 0. Moreover, the “Hepatotoxicity (steatosis)” value in [12] is on record as 0. In data set [13], the “Hepatotoxicity (malignant tumour)” value is listed as 0. In addition, the “Hepatotoxicity (benign tumour)” value in data set [14] is given as 0.

Regarding `CCOC(=O)Nc1ccc(NCc2ccc(F)cc2)nc1N` [FLUPIRTINE], the “Hepatotoxicity (moderate)” value was 10% in data set [1] and 2 in data set [3]. For the same compound, the “Hepatotoxicity (acute)” value in data set [2] is recorded as 0%; in data set [4], 0. Besides, the “Hepatotoxicity (cytolytic)” value in data set [5] turned out to be 0. Further, the “Hepatotoxicity (choleostasis)” value in data set [6] was 0. The “Hepatotoxicity (severe hepatitis)” value in data set [7] was 0. The “Hepatotoxicity (chronic liver disease)” value in data set [8] is on record as 0. In addition, the “Hepatotoxicity (cirrhosis)” value in [9] was 0. In addition, the “Hepatotoxicity (granulomatous hepatitis)” value in data set [10] is listed as 0. Besides, the “Hepatotoxicity (association with vascular disease)” value in data set [11] is on record as 0. Further, the “Hepatotoxicity (steatosis)” value in data set [12] is recorded as 0. Besides, in data set [13], the “Hepatotoxicity (malignant tumour)” value is given as 0. For the same compound, the “Hepatotoxicity (benign tumour)” value in data set [14] stood at 0.

In the case of `CN(C)CCOC(c1ccccc1)c1ccccc1` [DIPHENHYDRAMINE], the results for the “Hepatotoxicity (moderate)” value in data set [1] (Liver) and in data set [3] were 1.4% and 1, respectively. The figures for the “Hepatotoxicity (acute)” value in data set [2] (Liver) and in data set [4] were 0% and 0, respectively. Also, the “Hepatotoxicity (cytolytic)” value in data set [5] (Liver) came to 0. The “Hepatotoxicity (choleostasis)” value in [6] (Liver) was found to be 0. For the same compound, in [7] (Liver), the “Hepatotoxicity (severe hepatitis)” value was determined as 0. The “Hepatotoxicity (chronic liver disease)” value in data set [8] stood at 0. In [9], the “Hepatotoxicity (cirrhosis)” value turned out to be 0. Also, the “Hepatotoxicity (granulomatous hepatitis)” value in data set [10] (Liver) amounted to 0. In addition, in [11], the “Hepatotoxicity (association with vascular disease)” value came to 0. Besides, in [12], the “Hepatotoxicity (steatosis)” value came out at 0. The “Hepatotoxicity (malignant tumour)” value in data set [13] stood at 0. Besides, the “Hepatotoxicity (benign tumour)” value in [14] came out at 0.

Take `Clc1ccc(C(Cn2ccnc2)OCc2ccsc2Cl)c(Cl)c1` (stereo not drawn) [TIOCONAZOLE]: the “Hepatotoxicity (moderate)” value was 5.3% in [1] (Liver) and 1 in data set [3]. In addition, the “Hepatotoxicity (acute)” value in data set [2] (Liver) worked out at 0%; in data set [4], 0. Moreover, the “Hepatotoxicity (cytolytic)” value in data set [5] (Liver) is on record as 0. The “Hepatotoxicity (choleostasis)” value in [6] (Liver) worked out at 0. In addition, in data set [7] (Liver), the “Hepatotoxicity (severe hepatitis)” value turned out to be 0. Further, in data set [8], the “Hepatotoxicity (chronic liver disease)” value worked out at 0. In addition, in data set [9], the “Hepatotoxicity (cirrhosis)” value is on record as 0. The “Hepatotoxicity (granulomatous hepatitis)” value in data set [10] (Liver) is 0. For the same compound, in [11], the “Hepatotoxicity (association with vascular disease)” value stood at 0. The “Hepatotoxicity (steatosis)” value in [12] is 0. Besides, the “Hepatotoxicity (malignant tumour)” value in data set [13] amounted to 0. Besides, the “Hepatotoxicity (benign tumour)” value in data set [14] was 0.

Consider `Clc1cccc(Cl)c1N=C1NCCN1` [CLONIDINE], for which the “Hepatotoxicity (moderate)” value in data set [1] (Liver) is recorded as 12.5%; in data set [3], 1. The “Hepatotoxicity (acute)” value is given as 0% in [2] (Liver) and 0 in [4]. In addition, in data set [5] (Liver), the “Hepatotoxicity (cytolytic)” value is reported as 0. Besides, in data set [6] (Liver), the “Hepatotoxicity (choleostasis)” value turned out to be 0. Further, the “Hepatotoxicity (severe hepatitis)” value in data set [7] (Liver) is 0. Besides, the “Hepatotoxicity (chronic liver disease)” value in data set [8] turned out to be 0. The “Hepatotoxicity (cirrhosis)” value in [9] amounted to 0. In data set [10] (Liver), the “Hepatotoxicity (granulomatous hepatitis)” value is 0. Besides, the “Hepatotoxicity (association with vascular disease)” value in data set [11] is reported as 0. Besides, the “Hepatotoxicity (steatosis)” value in [12] is given as 0. Further, the “Hepatotoxicity (malignant tumour)” value in data set [13] was found to be 0. Also, the “Hepatotoxicity (benign tumour)” value in [14] was 0.

`Nc1nc(N)nc(Nc2ccc([As]3SCC(CO)S3)cc2)n1` (stereo not drawn) [MELARSOPROL]: the “Hepatotoxicity (moderate)” value in data set [1] is listed as 1%; in [3] it was 3. Besides, the figures for the “Hepatotoxicity (acute)” value in data set [2] and in data set [4] were 0% and 0, respectively. In addition, the “Hepatotoxicity (cytolytic)” value in data set [5] came to 0. The “Hepatotoxicity (choleostasis)” value in [6] turned out to be 0. Also, in [7], the “Hepatotoxicity (severe hepatitis)” value is given as 0. Besides, in [8], the “Hepatotoxicity (chronic liver disease)” value came to 0. Further, the “Hepatotoxicity (cirrhosis)” value in [9] is listed as 0. Besides, the “Hepatotoxicity (granulomatous hepatitis)” value in data set [10] is 0. Further, in data set [11], the “Hepatotoxicity (association with vascular disease)” value was found to be 0. Also, the “Hepatotoxicity (steatosis)” value in data set [12] was 0. In [13], the “Hepatotoxicity (malignant tumour)” value is given as 0. For the same compound, the “Hepatotoxicity (benign tumour)” value in data set [14] is 0.

On to `CC1(C)S[C@@H]2[C@H](NC(=O)[C@H](N)c3ccccc3)C(=O)N2[C@H]1C(=O)OCOC(=O)[C@@H]1N2C(=O)C[C@H]2S(=O)(=O)C1(C)C` [SULTAMICILLIN], for which the “Hepatotoxicity (moderate)” value in data set [1] came to 43%; in data set [3], 61. In addition, the “Hepatotoxicity (acute)” value came out at 0.2% in [2] and 1 in [4]. Moreover, the “Hepatotoxicity (cytolytic)” value in [5] was found to be 0. The “Hepatotoxicity (choleostasis)” value in data set [6] was found to be 1. Besides, in data set [7], the “Hepatotoxicity (severe hepatitis)” value worked out at 0. Besides, the “Hepatotoxicity (chronic liver disease)” value in data set [8] is listed as 0. The “Hepatotoxicity (cirrhosis)” value in data set [9] came out at 0. Besides, the “Hepatotoxicity (granulomatous hepatitis)” value in [10] is listed as 0. Also, in data set [11], the “Hepatotoxicity (association with vascular disease)” value turned out to be 0. Also, the “Hepatotoxicity (steatosis)” value in data set [12] is listed as 0. In addition, the “Hepatotoxicity (malignant tumour)” value in data set [13] is reported as 0. Moreover, in data set [14], the “Hepatotoxicity (benign tumour)” value was 0.

Consider `Cc1cc(C(=O)NCCc2ccc(S(=O)(=O)NC(=O)NN3CCCCCC3)cc2)no1` [GLISOXEPIDE], for which the entries for the “Hepatotoxicity (moderate)” value in [1] and in [3] were 0% and 1, respectively. Further, the “Hepatotoxicity (acute)” value in data set [2] turned out to be 0%; in data set [4], 0. The “Hepatotoxicity (cytolytic)” value in [5] is 0. For the same compound, in data set [6], the “Hepatotoxicity (choleostasis)” value was 0. Moreover, the “Hepatotoxicity (severe hepatitis)” value in data set [7] was 0. The “Hepatotoxicity (chronic liver disease)” value in data set [8] is listed as 0. In addition, the “Hepatotoxicity (cirrhosis)” value in [9] amounted to 0. The “Hepatotoxicity (granulomatous hepatitis)” value in data set [10] is given as 0. Also, in [11], the “Hepatotoxicity (association with vascular disease)” value is recorded as 0. The “Hepatotoxicity (steatosis)” value in data set [12] stood at 0. For the same compound, the “Hepatotoxicity (malignant tumour)” value in data set [13] worked out at 0. In addition, in [14], the “Hepatotoxicity (benign tumour)” value worked out at 0.
